# Reference: patent publication US6730666B1, “Pharmaceutical compositions comprising porphyrins and some novel porphyrin derivatives” (Yeda Research and Development Co. Ltd., priority 1998, dated 2004)
# Entries after “also recorded” stand apart in the source; their conditions may differ. Where two headings read alike, the source gives them in different places.
# Columns and labels:
# [1] = test system: FGFR-3 expressing CHO cells; assay: FGF-9 induced mitogenic activity (DNA synthesis) of FGFR-3 expressing CHO cells; assay type: cell-based; conditions: FIG. 13
# Protocol: CHO cells genetically engineered to express FGFR-3 were grown in the presence of increasing concentrations of porphyrins P1 and P16 in order to determine the ability of the porphyrins to inhibit FGF-9 induced DNA synthesis.
# CHO cells genetically engineered to express FGFR-3 were used in order to determine the ability of the porphyrins P1 and P16 to inhibit biological activity of FGFR3 as measured by the level of DNA synthesis induced by FGF-9.
# VEGF receptor KDR = biological target: T1, VEGF receptor KDR (Homo sapiens, UniProt P35968); assay: Binding of 125I-VEGF to endothelial cells transfected with VEGF receptor KDR; set-up: species or system bovine; conditions: FIG. 10A
# T1 construct: expressed in transfected cells; host or cells: bovine aortic endothelial cells
# Protocol: Binding of ^125I-VEGF to confluent monolayers of endothelial cells expressing KDR was performed as described in Methods, section (x), in the presence of increasing concentrations of P1 and of unlabeled VEGF; and
# x) Binding of ^125I-VEGF to cells. Confluent cultures of bovine aortic endothelial cells transfected with the VEGF receptor KDR were tested for binding of radiolabeled ^125I-VEGF as described in method (iv) above for the FGFR-1 expressing cells.
# FGFR-1 = FGFR-1 (Mus musculus, UniProt P16092); assay: Binding of 125I-bFGF to CHO cells expressing FGFR-1
# From the text: First we utilized a cell-free system, measuring the binding of radiolabeled bFGF to a dimeric soluble FGFR-1 fused to alkaline phosphatase. The soluble FRAP was immobilized using an anti-alkaline phosphatase antibody prebound to agarose-protein A beads (see Methods, section (iii)). As a: second experimental model, we used CHO cells deficient in heparan sulfate and genetically engineered to express FGFR-1 (Methods, section (iv)).
# [2] = test system: Lewis lung carcinoma (LLC) lung metastasis; assay: Lewis lung carcinoma lung metastasis model; assay type: in vivo, C57 black mice; set-up: Inhibitory activity in vivo, LLC tumor model (as % of total inhibition): reference not given here; conditions: for Inhibitory activity in vivo, LLC tumor model (as % of total inhibition): 25 μg/gram, LLC murine tumor model, lung metastasis
# Protocol: (vii) Lewis lung carcinoma tumor assay. Murine Lewis lung carcinoma (LLC) D122 cells (1×10^6 cells/[…] PBS) were injected into the foot pads of 10-week old C57 black mice (O'Reilly et al, 1994). Twenty five μg/g of body mass of porphyrin or corrole compound dissolved in PBS were injected IP twice a week to the treated group, and tumor size was measured periodically in order to follow primary tumor formation. In order to evaluate inhibition of lung metastasis by porphyrin or corrole compound, the primary tumors were allowed to develop over a period of six weeks to a volume of approximately 8 mm^3; after which the tumors were removed and metastases were allowed to develop for four weeks. During this time the treated group received 25 μg/g of body mass of porphyrin or corrole compound IP twice a week. Subsequently the mice were sacrificed, dissected and the lungs removed and photographed. The extent of lung metastasis was measured by weighing the lungs.
# After establishing the capacity of P1 to inhibit primary tumor growth, the capacity of P1 to inhibit lung metastasis formation was measured as described in Methods, section (vi). Mice were injected with LLC cells (200,000 cells per mouse) into the foot pad and primary tumors were allowed to develop over a period of 3 to 4 weeks to a volume of approximately 8 mm^3. Subsequently, primary tumors were removed through amputation and lung metasases were allowed to develop for four weeks before the mice were sacrificed. The extent of lung metastasis at this point was examined by gross morphological examination and by determining the gain in lung weight. […] In order to quantitate the results from these experiments, the lungs from all mice were weighed and evaluated for the extent of metastatic growth.
# soluble FGFR-1 (FRAP) = biological target: T2, soluble FGFR-1 (FRAP) (Mus musculus, UniProt P16092); assay: Binding of 125I-bFGF to immobilized soluble FGFR-1 (FRAP), cell-free
# T2 sequence (P16092 22-376 limits assumed): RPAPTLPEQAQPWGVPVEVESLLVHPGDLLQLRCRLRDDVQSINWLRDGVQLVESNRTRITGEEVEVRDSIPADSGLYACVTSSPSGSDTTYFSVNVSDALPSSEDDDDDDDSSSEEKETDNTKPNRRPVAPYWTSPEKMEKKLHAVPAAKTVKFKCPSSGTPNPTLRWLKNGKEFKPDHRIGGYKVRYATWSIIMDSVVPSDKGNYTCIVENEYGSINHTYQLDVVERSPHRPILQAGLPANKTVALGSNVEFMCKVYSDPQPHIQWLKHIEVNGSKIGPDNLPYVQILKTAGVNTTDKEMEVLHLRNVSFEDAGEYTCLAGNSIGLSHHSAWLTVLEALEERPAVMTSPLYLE
# From the text: First we utilized a cell-free system, measuring the binding of radiolabeled bFGF to a dimeric soluble FGFR-1 fused to alkaline phosphatase. […] As a: second experimental model, we used CHO cells deficient in heparan sulfate and genetically engineered to express FGFR-1 (Methods, section (iv)).
# ERK = ERK phosphorylation in FGFR-3 expressing cells induced by FGF-9; assay type: cell-based; conditions: FIG. 15B
# Protocol: (viii) Immunoblots. To the overnight serum-starved cells (2 plates for each treatment), 500 μl of F12^++ medium were added which either contained or not the respective porphyrin or corrole compound in a final concentration of […] for 40 min at 37° C. One of the two plates of each treatment was then stimulated with FGF9 (+) (75 ng/ml) and to the second plate only medium (−) was added for 10 min at 37° C. The cells were washed twice with PBS. 600 μl of SBN lysis buffer containing 1% NP-40 and 1 mM vanadate were added and left on ice for 10 min. The plates were then scraped and left on ice for additional 10 min. The lysate was span down in Eppendorf centrifuge for 15 min, 15000 rpm at 4° C. The supernatants were kept and Bradford protein determinant on assay was performed in the samples. 500 μg protein from each sample were taken for immunoprecipitation with 7.5 μl antibody against FGFR-3, 4 hr at 4° C.
# These findings support the notion that the porphyrins can serve for treating FGFR-3 related growth disorders. ERK1 and ERK2 are two isoforms of ERK.
# FGFR-3 = biological target: T3, FGFR-3 (Homo sapiens, UniProt P22607); assay: Binding of 125I-FGF9 to CHO cells transfected with FGFR-3; conditions: FIG. 12
# T3 construct: expressed in transfected cells; host or cells: CHO cells (mutant 745)
# Protocol: CHO mutant cells-745 expressing FGFR-3 were incubated for 90 min at 4° C. in the presence of increasing concentrations of the porphyrins, with 1 μg/ml of heparin and ^125I-FGF9 (2 ng/ml). The binding medium was discarded and the cells were washed with ice cold DMEM/BSA. To determine receptor binding of ^125I-FGF9, the cells were incubated in cold PBS (pH 4) containing 1.6M NaCl and 25 mM HEPES, and the cell extract was counted in a γ-counter.
# (iv) Binding of ^125I-bFGF and ^125I-FGF9 to cells. Confluent cultures of CHO cells expressing FGFR-1(Yayon et al, 1991) or FGFR-3 (Hecht et al, 1995) in 24-well plates (Falcon) were precooled and washed twice with cold DMEM supplemented with 20 mM Hepes (pH 7.5) and 0.1% bovine serum albumin (DMEM/BSA). They were then incubated for 1.5 h at 4° C. with ^125I-bFGF (2 ng/ml) and increasing concentrations of porphyrin/corrole compound. The binding medium was discarded and the cells were washed once with ice-cold DMEM/BSA and twice with cold PBS (pH 7.5) containing 1.6M NaCl. […] Non-specific binding was determined in the presence of a 100-fold excess of unlabeled bFGF.
# Chain of FGFR-1 (P16092 22-822): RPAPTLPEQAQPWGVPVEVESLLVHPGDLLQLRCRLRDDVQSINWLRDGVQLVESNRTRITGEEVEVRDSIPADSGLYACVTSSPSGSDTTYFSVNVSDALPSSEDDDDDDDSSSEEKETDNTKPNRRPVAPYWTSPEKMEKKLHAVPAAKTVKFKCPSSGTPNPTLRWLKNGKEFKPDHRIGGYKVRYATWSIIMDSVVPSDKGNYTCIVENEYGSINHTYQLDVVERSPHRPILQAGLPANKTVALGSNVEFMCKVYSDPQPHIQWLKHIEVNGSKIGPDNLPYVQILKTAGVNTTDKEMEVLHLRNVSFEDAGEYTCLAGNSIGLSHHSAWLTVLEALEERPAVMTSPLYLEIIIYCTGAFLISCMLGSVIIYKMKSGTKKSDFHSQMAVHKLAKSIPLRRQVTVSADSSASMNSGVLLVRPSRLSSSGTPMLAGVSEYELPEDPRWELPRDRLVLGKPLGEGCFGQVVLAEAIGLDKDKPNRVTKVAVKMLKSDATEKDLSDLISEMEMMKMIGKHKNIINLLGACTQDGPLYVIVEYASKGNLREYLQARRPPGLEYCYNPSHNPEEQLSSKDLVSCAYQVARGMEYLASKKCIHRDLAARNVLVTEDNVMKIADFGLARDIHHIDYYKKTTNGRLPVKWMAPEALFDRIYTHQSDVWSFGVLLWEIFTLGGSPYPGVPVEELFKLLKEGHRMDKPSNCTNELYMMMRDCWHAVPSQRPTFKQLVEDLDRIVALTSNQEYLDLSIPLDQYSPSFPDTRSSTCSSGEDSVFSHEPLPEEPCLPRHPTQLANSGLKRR
# T3 sequence (P22607 23-806, species assumed): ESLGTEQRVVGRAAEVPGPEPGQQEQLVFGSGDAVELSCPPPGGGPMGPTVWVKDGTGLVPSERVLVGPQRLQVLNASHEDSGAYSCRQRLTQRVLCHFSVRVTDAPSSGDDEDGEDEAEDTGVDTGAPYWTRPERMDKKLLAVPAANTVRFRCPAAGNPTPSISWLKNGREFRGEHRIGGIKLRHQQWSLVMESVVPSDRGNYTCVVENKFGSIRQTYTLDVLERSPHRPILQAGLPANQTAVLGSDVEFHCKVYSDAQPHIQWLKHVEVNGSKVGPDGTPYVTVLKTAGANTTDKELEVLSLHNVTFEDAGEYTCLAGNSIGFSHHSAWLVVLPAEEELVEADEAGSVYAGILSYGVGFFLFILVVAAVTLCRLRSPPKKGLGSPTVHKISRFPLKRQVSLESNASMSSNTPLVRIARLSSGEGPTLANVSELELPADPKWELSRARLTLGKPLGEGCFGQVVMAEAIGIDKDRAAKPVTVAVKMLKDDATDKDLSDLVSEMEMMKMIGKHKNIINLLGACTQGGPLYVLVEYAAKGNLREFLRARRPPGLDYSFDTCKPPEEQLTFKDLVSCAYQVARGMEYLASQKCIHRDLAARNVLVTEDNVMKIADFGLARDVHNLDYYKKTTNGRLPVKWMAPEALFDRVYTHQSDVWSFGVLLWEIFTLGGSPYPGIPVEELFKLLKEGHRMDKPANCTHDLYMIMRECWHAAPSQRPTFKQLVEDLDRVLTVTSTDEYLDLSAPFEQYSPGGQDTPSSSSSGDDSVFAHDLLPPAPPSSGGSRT
# T1 sequence (P35968 20-1356): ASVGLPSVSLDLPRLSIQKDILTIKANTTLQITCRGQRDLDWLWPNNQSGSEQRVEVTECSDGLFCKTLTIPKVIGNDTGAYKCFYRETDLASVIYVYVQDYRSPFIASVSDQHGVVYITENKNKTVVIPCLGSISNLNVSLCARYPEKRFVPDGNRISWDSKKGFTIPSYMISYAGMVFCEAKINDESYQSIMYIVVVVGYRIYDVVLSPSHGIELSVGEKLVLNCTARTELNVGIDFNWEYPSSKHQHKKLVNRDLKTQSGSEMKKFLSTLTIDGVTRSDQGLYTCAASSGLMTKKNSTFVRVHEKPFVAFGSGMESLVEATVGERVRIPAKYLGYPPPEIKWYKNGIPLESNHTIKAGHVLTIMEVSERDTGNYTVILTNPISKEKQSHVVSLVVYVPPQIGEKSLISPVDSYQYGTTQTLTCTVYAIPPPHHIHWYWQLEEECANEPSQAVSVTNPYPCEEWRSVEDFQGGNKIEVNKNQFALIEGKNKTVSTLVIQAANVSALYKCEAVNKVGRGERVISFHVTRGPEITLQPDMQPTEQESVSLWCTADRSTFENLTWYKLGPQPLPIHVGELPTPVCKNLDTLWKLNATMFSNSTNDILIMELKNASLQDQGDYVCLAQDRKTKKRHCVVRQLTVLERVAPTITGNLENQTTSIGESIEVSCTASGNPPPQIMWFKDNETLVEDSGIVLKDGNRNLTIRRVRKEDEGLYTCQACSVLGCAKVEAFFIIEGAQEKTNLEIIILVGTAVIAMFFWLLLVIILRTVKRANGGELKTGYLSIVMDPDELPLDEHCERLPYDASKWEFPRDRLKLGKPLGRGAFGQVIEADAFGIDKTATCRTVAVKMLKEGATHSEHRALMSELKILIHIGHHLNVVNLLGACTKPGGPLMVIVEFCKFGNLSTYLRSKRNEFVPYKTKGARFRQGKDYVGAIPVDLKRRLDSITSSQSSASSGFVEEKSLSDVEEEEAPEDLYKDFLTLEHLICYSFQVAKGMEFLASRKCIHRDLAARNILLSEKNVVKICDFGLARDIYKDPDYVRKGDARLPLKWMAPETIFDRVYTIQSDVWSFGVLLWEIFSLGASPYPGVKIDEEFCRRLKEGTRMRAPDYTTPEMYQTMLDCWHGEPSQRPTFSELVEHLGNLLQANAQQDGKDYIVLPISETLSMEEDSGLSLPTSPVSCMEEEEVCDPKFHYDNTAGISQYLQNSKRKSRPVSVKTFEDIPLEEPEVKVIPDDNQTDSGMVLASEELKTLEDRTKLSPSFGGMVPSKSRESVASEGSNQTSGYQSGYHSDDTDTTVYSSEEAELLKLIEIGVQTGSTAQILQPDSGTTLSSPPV
SMILES,Effect on cell proliferation induced by FGF-9 [1],"Inhibition of 125I-VEGF binding to KDR/flk-1 expressing cells, in words (VEGF receptor KDR)","IC50 (FGFR-1; Cellular receptor binding (IC50), binding of FGF to FGFR, Methods section (iv)) [nM]","IC50 (FGFR-1; IC50, bFGF binding in the cellular receptor system, FIG. 1C) [nM]","Inhibition of lung metastasis in LLC model, in words ([2]; 25 μg/g of body mass IP)","Inhibitory activity in vivo, LLC tumor model (as % of total inhibition) [2] [%]","Lung weight ([2]; P1 25 μg/g of body mass, FIG. 7)","IC50 (soluble FGFR-1 (FRAP); IC50, bFGF-FGFR1 binding in the soluble receptor (FRAP) assay, FIG. 1B) [nM]","IC50 (soluble FGFR-1 (FRAP); Soluble receptor binding (IC50), binding of FGF to FGFR, Methods section (iii)) [nM]",Effect on ERK activation (ERK),"IC50 (FGFR-1; read-out: Cellular receptor binding (IC50), binding of FGF to FGFR, Methods section (iv)) [nM]","IC50, FGF-9 binding in the cellular receptor system (FGFR-3) [µg/mL]","IC50 (soluble FGFR-1 (FRAP); read-out: Soluble receptor binding (IC50), binding of FGF to FGFR, Methods section (iii)) [nM]"
"C[n+]1ccc(-c2c3nc(c(-c4cc[n+](C)cc4)c4ccc([nH]4)c(-c4cc[n+](C)cc4)c4nc(c(-c5cc[n+](C)cc5)c5ccc2[nH]5)C=C4)C=C3)cc1 [Compound P1, 5,10,15,20-Tetrakis(N-methyl-4-pyridylium)-21H,23H-porphine tetra-p-tosylate]",strong inhibitory effect,efficiently inhibits,1500,~2500,no metastatic phenotype; also recorded: nearly total inhibition of the metastatic phenotype,100,around 200 mg,~1000,750,–,–,–,–
"C[n+]1ccc(-c2c3nc(c(-c4cc[n+](C)cc4)c4ccc([nH]4)c(-c4c(F)c(F)c(F)c(F)c4F)c4nc(c(-c5cc[n+](C)cc5)c5ccc2[nH]5)C=C4)C=C3)cc1.[I-].[I-].[I-] [Compound P16, 5-Pentafluorophenyl-10,15,20-tris(N-methyl-4-pyridylium)-21H,23H-porphine triiodide]",strong inhibitory effect,–,–,–,–,60,–,–,–,clear reduction in the activation,20,0.1,10
